Test results: PMC8151276, “An Integrated Approach toward NanoBRET Tracers for Analysis of GPCR Ligand Engagement” (Molecules, 2021)

What was measured:
[1] = molecular target: T1, MTNR1A (Homo sapiens, UniProt P48039); assay: NanoBRET screen HiBiT-MTNR1A in HEK293; type: binding
T1 construct: purchased Promega (in-house HiBiT-GPCR construct library, NanoBRET)
Procedure: (§1) Each tracer candidate was screened across the entire library of HiBiT-GPCR constructs using NanoBRET as the detection modality. As depicted in Figure 4A, the specificity of interactions was evaluated through decrease in BRET due to competitive displacement of a bound tracer by excess parental compound. Each tracer was analyzed for binding to each HiBiT-GPCR fusion in the absence and in the presence of competing parental compound. Briefly, HEK293 cells were transfected with HiBiT-GPCR constructs diluted into promoterless DNA to reduce expression and maximize translocation to the cell surface. Each tracer candidate was then screened at concentrations of 1 μM and 0.1 μM across cells expressing these fusions. Cells were treated for 1.5 h with tracer either alone or in the presence of 20 μM competing parental compound (i.e., control). BRET was measured upon addition of purified LgBiT and subsequent complementation with HiBiT genetically fused to a GPCR. The specificity of interactions was assessed through a decrease in BRET signal due to competitive displacement of the bound tracer. To further gauge the robustness of these interactions, the fold response over the control (i.e., BRETtracer/BRETcontrol) was calculated. We chose a 1.5-fold response, which translates to ≥7-fold signal over noise as the minimal threshold required to score an interaction as positive.
(§2) HiBiT-GPCR DNA constructs were diluted in 10 mM Tris pH 8 to a final concentration of 0.01 μg/μL, arrayed in 96-well plates and stored at −20 °C. For transfection, HEK293 cells were suspended in Opti-MEM (without phenol red) supplemented with 2% fetal bovine serum (Seradigm) and 100 units/mL penicillin–streptomycin (Gibco) at a final concentration of 220,000 cells/mL and dispensed into white 96-well plates at 90 μL/well. Subsequent transfections and screens were carried using an Agilent Bravo Automated Liquid Handling Platform. First, the 96-well HiBiT DNA arrays were diluted 25-fold in Opti-MEM (without serum or phenol red) to a final concentration of 0.0004 μg/μL and 20 μL of the diluted DNAs were transferred into new 96-well plates. Next, promoterless carrier DNA (1 μg/μL) was diluted 25-fold (0.04 μg/μL) and then dispensed into the diluted arrays at 20 μL/well. Following brief mixing, Viafect transfection reagent (Promega) diluted 16-fold into Opti-MEM was dispensed into the plates at 40 μL/well. After mixing by pipetting, plates were incubated for 10 min on the pipetting station deck. The DNA-transfection reagent complexes were then added to plates containing cells. To facilitate the screen, 10 μL of DNA-transfection reagent complexes were added in duplicates to the top 4 and bottom 4 rows, resulting in two identical 48-well arrays per plate. Plates with transfected cells were incubated for 18–20 h at 37 °C/5% CO2. A screen of each tracer across the entire library using two different concentrations requires duplicate plates of transfected cells. Depending on the number of tracers being screened, transfections can be scaled up using the same ratios. The next day, for each tracer, four 20× screening solutions in tracer dilution buffer (Promega) were prepared: two duplicates at final concentration of 20 μM and two duplicates at a final concentration of 2 μM. […] The four resulting solutions were diluted 4-fold in Opti-MEM without serum or phenol red to generate 5× solutions (5 µM and 0.5 µM tracer +/− 100 μM competing compound). To screen the library, a BioTek MultiFlo FX liquid dispenser was used to dispense 22.5 µL of tracer solution to the top 4 rows and 22.5 µL tracer + competing compound solution to the 4 bottom rows. Plates were briefly mixed on an orbital shaker and incubated for 1.5 h at room temperature. […] Plates were briefly mixed on an orbital shaker and incubated for 15 min to allow complementation.

[2] = molecular target: T2, DRD2 (Homo sapiens, UniProt P14416); assay: NanoBRET screen HiBiT-DRD2 in HEK293; type: binding
T2 construct: purchased Promega (in-house HiBiT-GPCR construct library, NanoBRET)
T2 sequence (P14416 whole entry): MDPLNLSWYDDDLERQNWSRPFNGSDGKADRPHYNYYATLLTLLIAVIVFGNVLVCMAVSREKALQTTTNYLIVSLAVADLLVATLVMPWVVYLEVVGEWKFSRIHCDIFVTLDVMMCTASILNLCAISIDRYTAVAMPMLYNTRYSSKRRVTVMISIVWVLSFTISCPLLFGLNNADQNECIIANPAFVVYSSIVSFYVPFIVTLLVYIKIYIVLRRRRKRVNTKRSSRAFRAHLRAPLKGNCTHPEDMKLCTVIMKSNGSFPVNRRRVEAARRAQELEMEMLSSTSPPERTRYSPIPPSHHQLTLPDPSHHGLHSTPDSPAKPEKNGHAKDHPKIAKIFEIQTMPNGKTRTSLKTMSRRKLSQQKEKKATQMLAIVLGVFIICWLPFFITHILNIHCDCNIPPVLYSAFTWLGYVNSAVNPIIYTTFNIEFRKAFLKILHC
Procedure: as §1, §2

T1 sequence (P48039 whole entry): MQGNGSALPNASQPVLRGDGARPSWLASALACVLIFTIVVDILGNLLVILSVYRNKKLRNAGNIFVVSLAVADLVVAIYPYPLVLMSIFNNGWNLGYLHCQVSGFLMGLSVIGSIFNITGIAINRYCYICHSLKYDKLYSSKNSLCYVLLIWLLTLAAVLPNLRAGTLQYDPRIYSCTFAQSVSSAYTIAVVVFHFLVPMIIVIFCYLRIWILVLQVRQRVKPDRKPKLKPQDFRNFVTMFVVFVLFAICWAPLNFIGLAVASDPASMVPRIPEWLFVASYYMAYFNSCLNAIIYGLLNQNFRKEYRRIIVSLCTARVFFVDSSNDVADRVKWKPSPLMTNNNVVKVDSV

Structure (SMILES)	NanoBRET Fold Response ([1]; MTNR1A, tracer 0.1μM)	NanoBRET Fold Response ([1]; MTNR1A, tracer 1μM)	NanoBRET Fold Response ([2]; DRD2, tracer 0.1μM)	NanoBRET Fold Response ([2]; DRD2, tracer 1μM)	further results
Cc1nc2n(c(=O)c1CCN1CCC(c3noc4cc(F)ccc34)CC1)CCCC2OC(=O)NCCOCCOCCOCCOCCNC(=O)CCc1ccc2n1[B-](F)(F)[N+]1=C(c3ccc[nH]3)C=CC1=C2 (stereo not drawn) [Risperidone-2-NB590]	0.97	0.93	2.85	2.07	
CCOC(=O)c1cc(C#N)c(N2CCC(C(=O)NS(=O)(=O)Cc3ccccc3/C=C/C(=O)NCCNC(=O)CCc3ccc4n3[B-](F)(F)[N+]3=C(c5ccc[nH]5)C=CC3=C4)CC2)nc1C [AZD1283-1-NB590]					NanoBRET Fold Response ([1]; MTNR1A, 0.1μM): 1.00; NanoBRET Fold Response ([1]; MTNR1A, 1μM): 1.00; NanoBRET Fold Response ([2]; DRD2, 0.1μM): 1.04; NanoBRET Fold Response ([2]; DRD2, 1μM): 1.08
Cc1cc2c(s1)Nc1ccccc1N=C2N1CCN(CCCNC(=O)CCOCCOCCOCCOCCNC(=O)CCc2ccc3n2[B-](F)(F)[N+]2=C(c4ccc[nH]4)C=CC2=C3)CC1 [Olanzapine-a-2-NB590]	1.01	1.07	1.98	2.25	
COc1ccccc1N1CCN(CCCCN2C(=O)c3ccc(CNC(=O)CCOCCNC(=O)c4ccc(CNC(=O)CCc5ccc6n5[B-](F)(F)[N+]5=C(c7ccc[nH]7)C=CC5=C6)cc4)cc3C2=O)CC1 [NAN-190-3-NB590]	1.01	0.80	1.80	1.21	
CC(C)N(CC[C@H](c1ccccc1)c1cc(CCNC(=O)CCOCCOCCOCCOCCNC(=O)CCc2ccc3n2[B-](F)(F)[N+]2=C(c4ccc[nH]4)C=CC2=C3)ccc1O)C(C)C [Tolterodine-2-NB590]	1.07	0.79	1.07	1.09	
CN(C)CCC=C1c2ccccc2CCc2ccc(C(=O)NCCNC(=O)CCOCCOCCOCCOCCNC(=O)CCc3ccc4n3[B-](F)(F)[N+]3=C(c5ccc[nH]5)C=CC3=C4)cc21 [Amitriptyline-b-2-NB590]	0.96	0.98			NanoBRET Fold Response ([2]; tracer at 0.1μM, listed as amitriptyline-b-2-NB590): 1.54
O=C(CCOCCOCCOCCOCCNC(=O)CCc1ccc2n1[B-](F)(F)[N+]1=C(c3ccc[nH]3)C=CC1=C2)NCCCN1CCN(C2=Nc3ccccc3Oc3ccc(Cl)cc32)CC1 [Loxapine-a-2-NB590]	0.92	1.12	1.97	1.62	
CN(C)CCC=C1c2ccccc2CCc2ccc(C(=O)NCCNC(=O)CCOCCOCCOCCOCCNC(=O)CCc3ccc4n3[B-](F)(F)[N+]3=C(c5ccc[nH]5)C=CC3=C4)cc21 [Amitriptyline-a-2-NB590]					NanoBRET Fold Response ([2]; tracer at 0.1μM): 1.50; NanoBRET Fold Response ([2]; tracer at 1μM): 1.97
O=C(CCc1ccc2n1[B-](F)(F)[N+]1=C(c3ccc[nH]3)C=CC1=C2)NCCOCCOCCNC(=O)OCCOCCN1CCN(C2=Nc3ccccc3Sc3ccccc32)CC1 [Quetiapine-a-2-NB590]	1.00	1.05	1.86	1.76	
COc1ccccc1N1CCN(CCCCN2C(=O)c3ccc(CNC(=O)CCOCCOCCOCCOCCNC(=O)CCc4ccc5n4[B-](F)(F)[N+]4=C(c6ccc[nH]6)C=CC4=C5)cc3C2=O)CC1 [NAN-190-2-NB590]	0.99	0.97	2.31	1.36	
CN1CCN(C2=Nc3cc(Cl)ccc3N(CC(=O)NCCOCCOCCOCCOCCNC(=O)CCc3ccc4n3[B-](F)(F)[N+]3=C(c5ccc[nH]5)C=CC3=C4)c3ccccc32)CC1 [Clozapine-c-2-NB590]					NanoBRET Fold Response ([1]; MTNR1A, 0.1μM tracer): 0.97; NanoBRET Fold Response ([1]; MTNR1A, 1μM tracer): 1.07
N#CN/C(=N\CCNC(=O)c1ccc(N)cc1)NCCCOc1cccc(CN2CCCCC2)c1 [Aminopotentidine (unmodified)]					NanoBRET Fold Response ([2]; DRD2, other tracers/Aminopotentidine (unmodified), 0.1μM): 1.53; NanoBRET Fold Response ([2]; DRD2, other tracers/Aminopotentidine (unmodified), 1μM): 1.51
COc1ccc2[nH]c(-c3ccc(CNC(=O)CCOCCOCCOCCOCCNC(=O)CCc4ccc5n4[B-](F)(F)[N+]4=C(c6ccc[nH]6)C=CC4=C5)cc3)c(CCNC(C)=O)c2n1 [AzomelatoninICO9-2-NB590]					NanoBRET Fold Response ([1]; 0.1μM tracer): 1.06; NanoBRET Fold Response ([1]; 1μM tracer): 1.42; NanoBRET Fold Response ([2]; 0.1μM tracer): 1.00; NanoBRET Fold Response ([2]; 1μM tracer): 1.03
O=C(CCOCCOCCOCCOCCNC(=O)CCc1ccc2n1[B-](F)(F)[N+]1=C(c3ccc[nH]3)C=CC1=C2)NCCCN1CCN(C2=Nc3cc(Cl)ccc3Nc3ccccc32)CC1 [Clozapine-a-2-NB590]					NanoBRET Fold Response ([1]; MTNR1A, 0.1μM tracer): 1.03; NanoBRET Fold Response ([1]; MTNR1A, 1μM tracer): 1.00; NanoBRET Fold Response ([2]; DRD2, 0.1μM tracer): 2.85; NanoBRET Fold Response ([2]; DRD2, 1μM tracer): 2.37
CCCn1c(=O)c2[nH]c(-c3ccc(OCC(=O)NCCNC(=O)CCOCCNC(=O)c4ccc(CNC(=O)CCc5ccc6n5[B-](F)(F)[N+]5=C(c7ccc[nH]7)C=CC5=C6)cc4)cc3)nc2n(CCC)c1=O [XAC-3-NB590]	1.02	1.01	1.17	1.85	
O=C(CCc1ccc2n1[B-](F)(F)[N+]1=C(c3ccc[nH]3)C=CC1=C2)NCc1ccc(C(=O)NCCOCCOCCNCC(O)COc2cccc3ccccc23)cc1 (stereo not drawn) [Propranolol-3-NB590]					NanoBRET Fold Response ([1]; MTNR1A, 0.1μM): 0.98; NanoBRET Fold Response ([1]; MTNR1A, 1μM): 0.94; NanoBRET Fold Response ([2]; DRD2, 0.1μM): 1.17; NanoBRET Fold Response ([2]; DRD2, 1μM): 1.09
O=C(CCc1ccc2n1[B-](F)(F)[N+]1=C(c3ccc[nH]3)C=CC1=C2)NCc1ccc(C(=O)NCCOCCC(=O)N[C@@H]2CC[C@@]3(O)[C@H]4Cc5ccc(O)c6c5[C@@]3(CCN4CC3CC3)[C@H]2O6)cc1 [Naltrexone-3-NB590]	0.76	1.18	0.98	1.36	
CN(CCC=C1c2ccccc2CCc2ccccc21)C(=O)CCOCCOCCOCCOCCNC(=O)CCc1ccc2n1[B-](F)(F)[N+]1=C(c3ccc[nH]3)C=CC1=C2 [Amitriptyline-e-2-NB590]					NanoBRET Fold Response ([2]; tracer at 1μM): 1.34
N#CN=C(NCCCOc1cccc(CN2CCCCC2)c1)NCCNC(=O)CCOCCOCCOCCOCCNC(=O)CCc1ccc2n1[B-](F)(F)[N+]1=C(c3ccc[nH]3)C=CC1=C2 [Aminopotentidine-2-NB590]	1.00	1.00	1.18	1.22	
COc1ccc2c(n1)c(CCNC(C)=O)cn2CCNC(=O)CCc1ccc2n1[B-](F)(F)[N+]1=C(c3ccc[nH]3)C=CC1=C2 [Azamelatonin-1-NB590]					NanoBRET Fold Response ([1]; 0.1μM tracer): 1.12; NanoBRET Fold Response ([1]; 1μM tracer): 1.55; NanoBRET Fold Response ([2]; 0.1μM tracer): 1.19; NanoBRET Fold Response ([2]; 1μM tracer): 0.52
CC(C)N(CC[C@H](c1ccccc1)c1cc(CCNC(=O)c2ccc(CNC(=O)CCc3ccc4n3[B-](F)(F)[N+]3=C(c5ccc[nH]5)C=CC3=C4)cc2)ccc1O)C(C)C [Tolterodine-BZ-NB590]	0.97	1.03	1.34	1.78	
CN1CCN(C2=Nc3cc(Cl)ccc3Nc3ccc(CNC(=O)CCOCCOCCOCCOCCNC(=O)CCc4ccc5n4[B-](F)(F)[N+]4=C(c6ccc[nH]6)C=CC4=C5)cc32)CC1 [Clozapine-b-2-NB590]					NanoBRET Fold Response ([1]; MTNR1A, 1μM tracer): 1.02
